Laboratory results taken from US20200017495A1, “NOVEL HETEROCYCLIC COMPOUNDS AND THEIR USE IN PREVENTING OR TREATING BACTERIAL INFECTIONS” (priority 2017, published 2020).

Columns and labels:
Assay in all cases: MIC of compounds alone and combined with antibacterials, broth microdilution (CLSI)
Format in all cases: cell-based
[1] = tested on: Escherichia coli (ECO) isolates
Procedure, shortened: (§1)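 Broth microdilution in cation-adjusted Mueller-Hinton broth, inoculum 5.10^5 CFU/mL, 16-20 h at 35° C in ambient air, on genotyped isolates. Compound MIC, alone or with an antibacterial, taken visually as lowest concentration preventing growth; antibacterial MIC determined at each compound concentration.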

[2] = tested on: Citrobacter koseri (CKR) isolates
Procedure, shortened: as §1

[3] = tested on: Serratia marcescens (SMA) isolates
Procedure, shortened: as §1

[4] = tested on: Providencia rettgeri (PRE) isolates
Procedure, shortened: as §1

## C=CC1=C(C(=O)O)N2C(=O)[C@@H](NC(=O)/C(=N\OCC(=O)O)c3csc(N)n3)[C@H]2SC1 [FIX, Cefixime]
[1]; strain ECO UFR206, with AF2 @ 8 μg/mL
  MIC ATB in combination: >128 µg/mL
[1]; strain ECO UFR206, with AF3 @ 8 μg/mL
  MIC ATB in combination: >128 µg/mL
[1]; strain ECO UFR206, with CLA @ 4 μg/mL
  MIC ATB in combination: >128 µg/mL
[1]; strain ECO UFR207, genotype CTX-M-15
  MIC: >128 µg/mL
[1]; strain ECO UFR208, genotype SHV-12
  MIC: >128 µg/mL
[1]; strain ECO UFR209, compound alone
  MIC: 1024 µg/mL
[1]; strain ECO UFR209, genotype TEM-1, CTX-M-15
  MIC: 1024 µg/mL
[1]; strain ECO UFR210, genotype SHV-12
  MIC: 32 µg/mL
[1]; strain ECO UFR211, genotype TEM-24
  MIC: >128 µg/mL
[1]; strain ECO UFR212, genotype CMY-2
  MIC: >128 µg/mL
[1]; strain ECO UFR218, genotype TEM-1, SHV-1, CTX-M-15
  MIC: >128 µg/mL
[1]; strain ECO UFR252GO, genotype VIM-2, antibiotic alone
  MIC: >128 µg/mL
[1]; strain ECO UFR252GO, with AF2 @ 8 μg/mL
  MIC ATB in combination: <0.25 µg/mL
[1]; strain ECO UFR252GO, with AF3 @ 8 μg/mL
  MIC ATB in combination: <0.25 µg/mL
[1]; strain ECO UFR252GO, with CLA @ 4 μg/mL
  MIC ATB in combination: >128 µg/mL
[1]; strain ECO UFR255, genotype NDM-1, antibiotic alone
  MIC: >128 µg/mL
[1]; strain ECO UFR255, with AF2 @ 8 μg/mL
  MIC ATB in combination: <0.25 µg/mL
[1]; strain ECO UFR255, with AF3 @ 8 μg/mL
  MIC ATB in combination: <0.25 µg/mL
[1]; strain ECO UFR255, with CLA @ 4 μg/mL
  MIC ATB in combination: >128 µg/mL
[2]; CKO ROU, AF2 @ 8 μg/mL
  MIC ATB in combination: 0.5 µg/mL
[2]; CKO ROU, AF3 @ 8 μg/mL
  MIC ATB in combination: 1 µg/mL
[2]; CKO ROU, CLA @ 4 μg/mL
  MIC ATB in combination: 2 µg/mL
[2]; CKO UFR149, AF2 @ 8 μg/mL
  MIC ATB in combination: <0.25 µg/mL
[2]; CKO UFR149, AF3 @ 8 μg/mL
  MIC ATB in combination: <0.25 µg/mL
[2]; CKO UFR149, CLA @ 4 μg/mL
  MIC ATB in combination: 1 µg/mL
[2]; CKO UFR150, AF2 @ 8 μg/mL
  MIC ATB in combination: 2 µg/mL
[2]; CKO UFR150, AF3 @ 8 μg/mL
  MIC ATB in combination: 2 µg/mL
[2]; CKO UFR150, CLA @ 4 μg/mL
  MIC ATB in combination: 2 µg/mL
[2]; strain CKO ROU, genotype TEM-1, SHV-12, CTX-M-15, OXA-1, OXA-48
  MIC: 1 µg/mL
[2]; strain CKO UFR149, genotype OXA-48
  MIC: 0.5 µg/mL
[2]; strain CKO UFR150, genotype TEM-1, OXA-48
  MIC: 2 µg/mL
[3]; SMA UFR30, AF2 @ 8 μg/mL
  MIC ATB in combination: 0.5 µg/mL
[3]; SMA UFR30, AF3 @ 8 μg/mL
  MIC ATB in combination: <=0.25 μg/mL
[3]; SMA UFR30, CLA @ 4 μg/mL
  MIC ATB in combination: 1 µg/mL
[3]; SMA UFR134, AF2 @ 8 μg/mL
  MIC ATB in combination: 0.5 µg/mL
[3]; SMA UFR134, AF3 @ 8 μg/mL
  MIC ATB in combination: <=0.25 μg/mL
[3]; SMA UFR134, CLA @ 4 μg/mL
  MIC ATB in combination: 32 µg/mL
[3]; SMA UFR135, AF2 @ 8 μg/mL
  MIC ATB in combination: 2 µg/mL
[3]; SMA UFR135, AF3 @ 8 μg/mL
  MIC ATB in combination: 2 µg/mL
[3]; SMA UFR135, CLA @ 4 μg/mL
  MIC ATB in combination: 32 µg/mL
[3]; SMA UFR136, AF2 @ 8 μg/mL
  MIC ATB in combination: 4 µg/mL
[3]; SMA UFR136, AF3 @ 8 μg/mL
  MIC ATB in combination: 4 µg/mL
[3]; SMA UFR136, CLA @ 4 μg/mL
  MIC ATB in combination: >128 µg/mL
[3]; SMA UFR137, AF2 @ 8 μg/mL
  MIC ATB in combination: <=0.25 μg/mL
[3]; SMA UFR137, AF3 @ 8 μg/mL
  MIC ATB in combination: <=0.25 μg/mL
[3]; SMA UFR137, CLA @ 4 μg/mL
  MIC ATB in combination: 1 µg/mL
[3]; SMA UFR138, AF2 @ 8 μg/mL
  MIC ATB in combination: <=0.25 μg/mL
[3]; SMA UFR138, AF3 @ 8 μg/mL
  MIC ATB in combination: <=0.25 μg/mL
[3]; SMA UFR138, CLA @ 4 μg/mL
  MIC ATB in combination: 0.5 µg/mL
[3]; SMA UFR139, AF2 @ 8 μg/mL
  MIC ATB in combination: 1 µg/mL
[3]; SMA UFR139, AF3 @ 8 μg/mL
  MIC ATB in combination: <=0.25 μg/mL
[3]; SMA UFR139, CLA @ 4 μg/mL
  MIC ATB in combination: 2 µg/mL
[3]; SMA UFR141, AF2 @ 8 μg/mL
  MIC ATB in combination: <=0.25 μg/mL
[3]; SMA UFR141, AF3 @ 8 μg/mL
  MIC ATB in combination: 0.5 µg/mL
[3]; SMA UFR141, CLA @ 4 μg/mL
  MIC ATB in combination: 0.5 µg/mL
[3]; SMA UFR142, AF2 @ 8 μg/mL
  MIC ATB in combination: 0.5 µg/mL
[3]; SMA UFR142, AF3 @ 8 μg/mL
  MIC ATB in combination: 1 µg/mL
[3]; SMA UFR142, CLA @ 4 μg/mL
  MIC ATB in combination: 2 µg/mL
[3]; SMA UFR143, AF2 @ 8 μg/mL
  MIC ATB in combination: <=0.25 μg/mL
[3]; SMA UFR143, AF3 @ 8 μg/mL
  MIC ATB in combination: <=0.25 μg/mL
[3]; SMA UFR143, CLA @ 4 μg/mL
  MIC ATB in combination: 64 µg/mL
[3]; SMA UFR239, AF2 @ 8 μg/mL
  MIC ATB in combination: 0.25 µg/mL
[3]; SMA UFR239, AF3 @ 8 μg/mL
  MIC ATB in combination: <=0.25 μg/mL
[3]; SMA UFR239, CLA @ 4 μg/mL
  MIC ATB in combination: 2 µg/mL
[3]; strain SMA UFR30, genotype OXA-405
  MIC: 1 µg/mL
[3]; strain SMA UFR134, genotype TEM-1, BES-1
  MIC: >128 µg/mL
[3]; strain SMA UFR135, genotype TEM-1, KPC-2
  MIC: 64 µg/mL
[3]; strain SMA UFR136, genotype TEM-1, SHV-12, KPC-2
  MIC: >128 µg/mL
[3]; strain SMA UFR137, genotype SME-1
  MIC: 0.5 µg/mL
[3]; strain SMA UFR138, genotype SME-1
  MIC: 0.5 µg/mL
[3]; strain SMA UFR139, genotype SME-2
  MIC: 1 µg/mL
[3]; strain SMA UFR140, genotype IMP-1
  MIC: >128 µg/mL
[3]; strain SMA UFR140, with AF2 @ 8 μg/mL
  MIC ATB in combination: >128 µg/mL
[3]; strain SMA UFR140, with AF3 @ 8 μg/mL
  MIC ATB in combination: >128 µg/mL
[3]; strain SMA UFR140, with CLA @ 4 μg/mL
  MIC ATB in combination: >128 µg/mL
[3]; strain SMA UFR141, genotype OXA-48
  MIC: 2 µg/mL
[3]; strain SMA UFR142, genotype OXA-48
  MIC: 2 µg/mL
[3]; strain SMA UFR143, compound alone
  MIC: 512 µg/mL
[3]; strain SMA UFR143, genotype CTX-M-15, OXA-1, OXA-48
  MIC: 512 µg/mL
[3]; strain SMA UFR238, genotype OXA-48
  MIC: 1 µg/mL
[3]; strain SMA UFR238, with AF2 @ 8 μg/mL
  MIC ATB in combination: 0.5 µg/mL
[3]; strain SMA UFR238, with AF3 @ 8 μg/mL
  MIC ATB in combination: 0.5 µg/mL
[3]; strain SMA UFR238, with CLA @ 4 μg/mL
  MIC ATB in combination: 2 µg/mL
[3]; strain SMA UFR239, genotype ESAC
  MIC: 2 µg/mL
[4]; PRE UFR99, AF2 @ 8 μg/mL
  MIC ATB in combination: >128 µg/mL
[4]; PRE UFR99, AF3 @ 8 μg/mL
  MIC ATB in combination: >128 µg/mL
[4]; PRE UFR99, CLA @ 4 μg/mL
  MIC ATB in combination: >128 µg/mL
[4]; strain PRE UFR96, genotype CTX-M-15, NDM-1
  MIC: >128 µg/mL
[4]; strain PRE UFR96, with AF2 @ 8 μg/mL
  MIC ATB in combination: <0.25 µg/mL
[4]; strain PRE UFR96, with AF3 @ 8 μg/mL
  MIC ATB in combination: <0.25 µg/mL
[4]; strain PRE UFR96, with CLA @ 4 μg/mL
  MIC ATB in combination: >128 µg/mL
[4]; strain PRE UFR97, genotype TEM-1, NDM-1
  MIC: >128 µg/mL
[4]; strain PRE UFR97, with AF2 @ 8 μg/mL
  MIC ATB in combination: >128 µg/mL
[4]; strain PRE UFR97, with AF3 @ 8 μg/mL
  MIC ATB in combination: >128 µg/mL
[4]; strain PRE UFR97, with CLA @ 4 μg/mL
  MIC ATB in combination: >128 µg/mL
[4]; strain PRE UFR99, genotype OXA-1, OXA-181
  MIC: >128 µg/mL
[4]; strain PRE UFR236, genotype TEM-1, OXA-48
  MIC: 32 µg/mL
[4]; strain PRE UFR236, with AF2 @ 8 μg/mL
  MIC ATB in combination: <=0.25 μg/mL
[4]; strain PRE UFR236, with AF3 @ 8 μg/mL
  MIC ATB in combination: <=0.25 μg/mL
[4]; strain PRE UFR236, with CLA @ 4 μg/mL
  MIC ATB in combination: 32 µg/mL
